According to patent US12594261B2, “Use of heterocyclic derivatives with cardiomyocyte proliferation activity for treatment of heart diseases” (SHANGHAI EAST HOSPITAL (EAST HOSPITAL, TONGJI UNIVERSITY …, priority 2019, dated 2026):
“Also recorded” adds a separate entry of the source. Like-named read-outs stand apart in the source and are kept apart here.

Experiments:
[1] = tested on: neonatal rat ventricular myocytes (NRVMs); assay: Myocyte proliferation assay (EdU) in neonatal rat ventricular myocytes; type: cell-based; details: for activation at 1 µM / activation at 3 µM / activation at 10 µM: Rattus norvegicus, Ventricular myocyte, growth relative to blank myocyte growth without compound added; for activation at 1 µM: 1 uM compound; for activation at 3 µM: 3 uM compound; for activation at 10 µM: 10 uM compound
Method: 1. Isolation of and Culture Neonatal Rat Ventricular Myocytes (NRVMs)
Ventricles from neonatal rats were separated from the atria, cut into small pieces (about 2×2 mm^2) and then dissociated in Ca^2+-free HBSS containing 0.125 mg ml-1 trypsin (Gibco), 10 μg ml-1 DNase II (Sigma) and 0.1 mg ml-1 collagenase type IV (Sigma). The digestion was carried out under constant stirring at 37° C. for 5 min. The supernatant was collected with FBS (Gibco) after each digestion period. After digestion, the collected supernatant was centrifuged at 1000 g for 10 min at room temperature, and then cell pellets were resuspended in DMEM (Gibco) supplemented with 10% FBS and with 100 uM 5-bromo-2′-deoxyuridine (Sigma). The resuspended cells were passed through a cell strainer ([…], BD Falcon) and seeded onto 100-mm plastic dishes for 2 h at 37° C. in a 5% CO2 to remove fibroblasts, the supernatant was then collected and plated onto 1% gelatin (Sigma)-coated dishes. 24 h after the seeding, the medium was changed to DMEM (Gibco) containing 2% FBS (Gibco), 1% insulin-transferrin-selenium (ITS; Gibco), 1% Penicillin-Streptomycin (Gibco). After 24 hours of low serum culture, remove the medium with DMEM (Gibco) containing 6% FBS (Gibco), 1% insulin-transferrin-selenium (ITS; Gibco), 1% Penicillin-Streptomycin (Gibco), different concentrations of compounds (the compounds were pre-diluted in the medium and the drug concentration was 10 uM, 3 uM, 1 uM, fully mixed). After 36 h add Edu substrate (Invitrogen) according to the manufacturer's guidelines, and then after 12 h cell can be used.
2.1. Immobilization: Remove the medium and fix the cells with […] in 200 ul (whichever is covered) for 15 min and wash the cells twice with 500 ul of PBS for 5 min each time.
2.2. Broken membrane: Add 200 ul of 0.3% Triton-X 100 (diluted in PBS) to each well, incubate for 10-15 min at room temperature (the time should not be too long), and wash the cells twice with 500 ul of PBS for 5 min each time.
2.3. Blocking: Add 200 ul of 10% normal goat serum (diluted with 0.1% PBST) to each well, incubate for 1 h at room temperature, and wash twice with 500 ul of 0.1% PBST for 5 min each time.
2.4. Primary antibody: dilute the primary antibody (abcam, ab8295) to blocking solution at a ratio of 1:200, add 100 ul per well, incubate for 1 h at room temperature (may be slightly longer than 2-3 h), wash the cells twice with 500 ul 0.1% PBST for 5 min each time.
2.5. Secondary antibody: Dilute the fluorescently labeled secondary antibody (abcam, ab150117) into blocking solution at a ratio of 1:200, add 100 ul per well, incubate for 1 h at room temperature (the time should not be too long), wash the cells twice with 0.1% PBST for 5 min each time, pay attention to the whole process. Protected from light.
2.6. Edu staining (Invitrogen C10338)
2.6.1 Prepare Click-iT® reaction cocktail according to Table 3. It was important to add the ingredients in the order listed in the table; otherwise, the reaction would not proceed optimally. Use the Click-iT® reaction cocktail within 15 minutes of preparation.
2.6.2 Add 0.1 mL of Click-iT® reaction cocktail to each well containing a coverslip. Rock the plate briefly to ensure that the reaction cocktail is distributed evenly over the coverslip.
2.6.3 Incubate the plate for 30 minutes at room temperature, protected from light.
2.6.4 Remove the reaction cocktail, then wash the cells twice with 0.1% PBST for 5 min each time.
2.7. DAPI staining: DAPI stain was diluted to PBS at a ratio of 1:1000, 100 ul per well, incubated for 30 min at room temperature, and the cells were washed twice with PBS for 5 min each.
We used Molecular Devices' Image Xpress Micro Confocal for high-throughput photo and data analysis.

[2] = target: T1, human GSK3 beta (Homo sapiens, UniProt P49841); assay: GSK3 beta enzyme assay (ADP-Glo); type: biochemical
T1 construct: Recombinant full-length human GSK3 beta (expressed in Sf9 insect cells with an N-terminal His tag); His tag (N); purchased SignalChem G09-10H; host or cells: Sf9 insect cells
T1 sequence (P49841 whole entry): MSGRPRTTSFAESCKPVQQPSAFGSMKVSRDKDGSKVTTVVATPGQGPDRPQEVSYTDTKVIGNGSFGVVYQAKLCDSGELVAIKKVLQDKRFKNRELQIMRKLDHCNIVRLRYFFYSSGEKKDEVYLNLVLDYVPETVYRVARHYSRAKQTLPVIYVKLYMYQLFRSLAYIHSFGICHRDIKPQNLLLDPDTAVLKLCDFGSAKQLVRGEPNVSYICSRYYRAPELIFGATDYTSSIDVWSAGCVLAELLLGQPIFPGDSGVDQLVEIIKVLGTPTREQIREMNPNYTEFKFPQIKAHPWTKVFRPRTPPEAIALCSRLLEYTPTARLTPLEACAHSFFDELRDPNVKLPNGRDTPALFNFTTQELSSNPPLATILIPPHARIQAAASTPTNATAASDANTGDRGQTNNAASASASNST
Method: 1. GSK3 Beta Enzyme Assay
The ability of compounds to inhibit human GSK3 beta kinase activities was determined using a commercially available ADP-Glo™ Kinase Assay kit (Promega, Cat #V9102) according to the manufacturer's protocol. The ADP-Glo™ Kinase Assay is a luminescent ADP detection assay that provides a universal, homogeneous, high-throughput screening method to measure kinase activity by quantifying the amount of ADP produced during a kinase reaction. The ADP-Glo™ Kinase Assay can be used to monitor the activity of virtually any ADP-generating enzymes (e.g., kinases or ATPases).
Recombinant full-length human GSK3 beta (expressed in Sf9 insect cells with an N-terminal His tag) was purchased from SignalChem (SignalChem, Cat #G09-10H). The GSK3 substrate peptide (sequence: […](pS)EDEEE) was purchased from SignalChem (SignalChem, Cat #G50-58). This assay, run in a 384-well plate format, is a generic method for measuring kinase activities using an ADP-Glo Kinase Assay Kit. The basic assay procedure involves two steps: (1) Enzymatic step: inhibitors are incubated with the kinase and then ATP (included in the ADP-Glo Kinase Assay Kit) and the GSK3 substrate peptide are added to start the enzymatic reaction; (2) Detection step: after the kinase reaction, first ADP-Glo™ Reagent is added to terminate the kinase reaction and deplete the remaining ATP. Second, the Kinase Detection Reagent is added to simultaneously convert ADP to ATP and allow the newly synthesized ATP to be measured using a luciferase/luciferin reaction. The light generated is measured using a luminometer.
Briefly, GSK3 beta (4 nM) in the enzymatic buffer solutions (40 mM Tris, 7.5, 20 mM MgCl2, 0.1 mg/ml BSA, 50 μM DTT) were mixed with various concentrations of inhibitors (dissolved in 100% DMSO). These solutions were incubated for 30 minutes at 25° C., and subsequently a mixture of substrate peptide and ATP was added with the final peptide and ATP concentrations at 13 μM and 25 μM, respectively. The final reaction mixture of enzyme-substrate-ATP-compound was incubated for 60 minutes at 25° C.
Afterwards ADP-Glo™ Reagent was added and the mixture was incubated at 25° C. for 60 minutes. Then Kinase Detection Reagent was added and the final mixture was incubated at 25° C. for 60 minutes. The luminescence signal of the final solution was measured on an Envision instrument (PerkinElmer). The percent (%) inhibition at each concentration of a compound is calculated relative to the luminescence signal in the Max and Min control wells contained within each assay plate. […] The concentrations and percent inhibition values for a test compound are plotted and the concentration of the compound required to achieve 50% inhibition (IC50) is determined with a four-parameter logistic dose response equation.

[3] = tested on: Myocardial Infarction (left coronary artery ligation); assay: In vivo test, myocardial infarction (heart infarct) model; set-up: species or system C57/BL6 mice
Method: 6-week-old C57/BL6 mice were anesthetized with 1% isoflurane in a chamber. The mice were placed in a left supine position on a heating pad (37° C.), and the heart was exposed via thoracotomy at the fourth left intercostal space. The pericardium was then opened, and the left coronary artery was permanently ligated with a 7-0 suture. Ligation was considered successful when the left ventricle became pale. From one week after surgery, the compound L41 or control solvent were injected via tail vein every other day. The mice were then euthanized after 6 weeks of injection, and the hearts were subjected to histology.
2. Injury Region Division
The cardiac tissue regions used for image characterization are described as the whole heart, infarct zone (left ventricle free wall), border zone (left ventricle anterior and posterior walls), or distal zone (interventricular septum).
For histology studies, hearts were collected at the indicated time points. […]
Hearts were sectioned at a thickness of 8 μm, and slides were created with 5 sections per slide. […] Scar size was quantified by examining serial sections from the apex to the ligation site and calculating the average percent fibrotic area of the total area using Image J software based on Masson's trichrome staining.

Structure (SMILES) | activation at 1 µM [1] | activation at 3 µM [1] | activation at 10 µM [1] | IC50 [2] | myocyte growth / proliferation (EDU proliferation index), in words ([1]; neonatal rat cardiomyocytes, FIGS. 3-5) | cardiomyocyte proliferation in the heart infarct model ([3]; mouse, in vivo) | infarct size in the heart infarct model ([3]; tail vein injection every other day from one week after surgery, 6 weeks, FIG. 6 and 7) | IC50 ([2]; read-out: GSK3b IC50)
CC(=O)N(C1=N/C(=C\c2ccc3c(c2)OCO3)C(=O)N1)c1ccccc1 [TJU-B183, (Z)—N-(4-(benzo[d][1,3]dioxol-5-ylmethylene)-5-oxo-4,5-dihydro-1H-imidazol-2-yl)-N-phenylacetamide] | < 10% | 10 to 50% | > 50% | > 10 µM | – | – | – | –
O=C1NC(Nc2ccccc2)=N/C1=C\c1ccc2c(c1)OCO2 [Example L41, (Z)-5-(benzo[d][1,3]dioxol-5-ylmethylene)-2-(phenylamino)-3,5-dihydro-4H-imidazol-4-one] | < 10% | < 10% | < 10% | – | potent agonist for promoting myocyte growth or proliferation; also recorded: promotes myocyte growth; also recorded: promotes proliferation of neonatal rat cardiomyocytes; also recorded: potent activity | superior cardiomyocyte proliferation activity | reduction in infarct size | –
CCN(C1=N/C(=C\c2ccc3c(c2)OCO3)C(=O)N1)c1ccccc1 [TJU-B182, (Z)-5-(benzo[d][1,3]dioxol-5-ylmethylene)-2-(ethyl(phenyl)amino)-3,5-dihydro-4H-imidazol-4-one] | 10 to 50% | 10 to 50% | 10 to 50% | – | – | – | – | > 10 µM
CN1C(=O)/C(=C/c2ccc3c(c2)OCO3)N=C1N(C)c1ccccc1 [TJU-B116, (Z)-5-(benzo[d][1,3]dioxol-5-ylmethylene)-3-methyl-2-(methyl(phenyl)amino)-3,5-dihydro-4H-imidazol-4-one] | < 10% | < 10% | < 10% | – | – | – | – | > 10 µM
CN(C1=N/C(=C\c2ccc3c(c2)OCO3)C(=O)N1)c1ccccc1 [TJU-B115, (Z)-5-(benzo[d][1,3]dioxol-5-ylmethylene)-2-(methyl(phenyl)amino)-3,5-dihydro-4H-imidazol-4-one] | < 10% | > 50% | 10 to 50% | – | – | – | – | > 10 µM
O=C1/C(=C/c2ccc3c(c2)OCO3)N=C(N(Cc2ccccc2)c2ccccc2)N1Cc1ccccc1 [TJU-B076, (Z)-5-(benzo[d][1,3]dioxol-5-ylmethylene)-3-benzyl-2-(benzyl(phenyl)amino)-3,5-dihydro-4H-imidazol-4-one] | < 10% | < 10% | > 50% | – | – | – | – | > 10 µM
